Data: US20040014689A1, “Endoparaciticidal and ectoparasiticidal agents” (priority 1996, published 2004)

Assays:
Nematospiroides dubius = assay: Use Example C: in vivo nematode test, Nematospiroides dubius in mice; conditions: oral
Procedure: Nematospiroides dubius in Mice
Mice were experimentally infected with nematodes of the species Nematospiroides dubius. Specifically, the mice were administered Nematospiroides dubius orally as 60 filariform larvae.
After the prepatency period had expired, the suspended active compounds of Example 2 were administered orally on day 12 after the infection.
(§1) Determination of the Activity:
The mice are selected on day 20 after the infection. The adult parasites in the Duodenum are counted by means of a compressorium. The success of treatment in the dose group is compared to the untreated control group.

Heterakis spumosa = assay: Example D: in vivo nematode test, Heterakis spumosa in mice; conditions: oral
Procedure: Heterakis spumosa in Mice
Mice were experimentally infected with nematodes of the species Heterakis spumosa. Specifically, the mice were administered Heterakis spumosa orally as 90 embryonate eggs.
After the prepatency period had expired, the suspended active compounds of Example 2 were administered orally on day 46 after the infection.
as §1
The mice are selected on day 54 after the infection. The adult parasites are counted in the colon and caecum using a microscope. The success of treatment in the dose group is compared to the untreated control group.

[1] = ivermectin B1a/B1b 0.1 mg/kg alone

Compound: 22,23-Dihydroavermectin B1a/B1b [Ivermectin B1a/B1b]
- Reduction rate [%] (Nematospiroides dubius; [1]): 0%
- Reduction rate [%] (Heterakis spumosa; [1]): <50%

Compound: O=[N+]([O-])NC1=NCCN1Cc1ccc(Cl)nc1 [Imidacloprid, 1-[(6-chloro-3-pyridinyl)methyl]-N-nitro-2-imidazolidinium]
- Reduction rate [%] (Nematospiroides dubius; imidacloprid 25.0 mg/kg alone): 0%
- Reduction rate [%] (Nematospiroides dubius; imidacloprid 50.0 mg/kg alone): 0%
- Reduction rate [%] (Heterakis spumosa; imidacloprid 5.0 mg/kg alone): 0%
- Reduction rate [%] (Heterakis spumosa; imidacloprid 10.0 mg/kg alone): 0%
- Reduction rate [%] (Heterakis spumosa; imidacloprid 25.0 mg/kg alone): 0%
- Reduction rate [%] (Heterakis spumosa; imidacloprid 50.0 mg/kg alone): 0%
